Reference: patent US10087166B2, “Cyclic amine azaheterocyclic carboxamides” (Merck Patent GmbH, priority 2010, dated 2018)

Biological target: T1, P70S6K (Homo sapiens, UniProt P23443, T412E)
T1 construct: purchased Millipore
Assay: P70S6K enzyme assay
Assay type: biochemical
Settings: P70S6K T412E mutant 3 nM, 24 μM ATP, FITC-AHA-AKRRRLSSLRA-OH substrate, 90 min at 25° C.; read-out: IC50p70S6K
Experimental: P70S6K inhibitor compounds are diluted and plated in 96 well plates. A reaction mixture including the following components is then added to the compound plate to initiate the enzyme reaction; P70S6K (3 nM, T412E mutant, Millipore) is mixed with 24 μM ATP in an assay buffer containing 100 mM Hepes (pH 7.5), 5 mM MgCl2, 1 mM DTT, 0.015% Brij and 1 μM of the substrate peptide FITC-AHA-AKRRRLSSLRA-OH (derived from the S6 ribosomal protein sequence, FITC=fluorescein isothiocyanate, AHA=6-aminohexanoic acid). The reaction is incubated for 90 min at 25° C., before the addition of 10 mM EDTA to stop the reaction. The proportion of substrate and product (phosphorylated) peptide is analyzed on a Caliper Life Sciences Lab Chip 3000, using a pressure of −1.4 psi, and upstream and downstream voltages of −3000 and −700 respectively. Product peaks are resolved before substrate peaks on the resulting chromatograms.
To assess the inhibitory potential of the compounds, IC50-values were determined, as shown in Chemical Synthesis section above.

T1 sequence (P23443 whole entry T412E): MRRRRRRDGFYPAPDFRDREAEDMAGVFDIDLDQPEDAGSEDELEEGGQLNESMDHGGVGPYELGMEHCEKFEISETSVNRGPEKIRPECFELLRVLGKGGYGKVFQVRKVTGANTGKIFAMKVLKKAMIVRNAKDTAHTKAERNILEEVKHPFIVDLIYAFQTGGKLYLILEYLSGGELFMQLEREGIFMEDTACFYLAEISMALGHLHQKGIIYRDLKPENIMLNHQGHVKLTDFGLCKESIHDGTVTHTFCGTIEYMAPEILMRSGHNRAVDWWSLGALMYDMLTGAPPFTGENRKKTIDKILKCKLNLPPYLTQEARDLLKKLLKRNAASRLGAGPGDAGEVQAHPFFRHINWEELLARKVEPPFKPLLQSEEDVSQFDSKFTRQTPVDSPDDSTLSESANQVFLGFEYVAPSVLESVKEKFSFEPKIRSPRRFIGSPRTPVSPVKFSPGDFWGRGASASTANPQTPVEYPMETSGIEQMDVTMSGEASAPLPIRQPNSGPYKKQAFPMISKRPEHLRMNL

| Compound | IC50 |
| --- | --- |
| NC(=O)c1cccc2c(N[C@H]3CNC[C@@H]3c3cccc(F)c3)ncnc12 (racemic) [compound 2, 4-((4-(3-fluorophenyl)pyrrolidin-3-yl)amino)quinazoline-8-carboxamide] | 3 nM |
| NC(=O)c1cccc2c(NC3CNCC3c3c(F)cccc3Cl)ncnc12 (racemic) [compound 10, 4-((4-(2-chloro-6-fluorophenyl)pyrrolidin-3-yl)amino)-quinazoline-8-carboxamide] | 7 nM |
| Cc1cc(C(N)=O)c2ncnc(NC3CNCC3c3ccccc3)c2c1 (racemic) [compound 15, 6-methyl-4-((4-phenylpyrrolidin-3-yl)amino)quinazoline-8-carboxamide] | 349 nM |
| Cc1nc(NC2CNCC2c2ccccc2)c2cccc(C(N)=O)c2n1 (racemic) [compound 16, 2-methyl-4-((4-phenylpyrrolidin-3-yl)amino)quinazoline-8-carboxamide] | 6 nM |
| Cc1ccc(C2CCN(C(=O)OCc3ccccc3)CC2Nc2ncnc3c(C(N)=O)cccc23)cc1F (racemic) [compound 35, Benzyl 3-((8-carbamoylquinazolin-4-yl)amino)-4-(3-fluoro-4-methylphenyl)piperidine-1-carboxylate] | 1000 nM |
| Cc1nc(N[C@@H]2CNCC[C@H]2c2cccc(F)c2)c2cccc(C(N)=O)c2n1 (racemic) [compound 37, 4-((4-(3-fluorophenyl)piperidin-3-yl)amino)-2-methylquinazoline-8-carboxamide] | 2.5 nM |
| Cc1nc(N[C@@H]2CNCC[C@H]2c2ccccc2)c2cccc(C(N)=O)c2n1 (racemic) [compound 40, 2-methyl-4-((4-phenylpiperidin-3-yl)amino)quinazoline-8-carboxamide] | 6.4 nM |
| NC(=O)c1cccc2c(N[C@H]3CNC[C@@H]3c3cccc(C(F)(F)F)c3)ncnc12 (racemic) [compound 48] | 1.7 nM |
| NC(=O)c1cccc2c(N[C@H]3CNC[C@@H]3c3ccc(C(F)(F)F)cc3)ncnc12 (racemic) [compound 52] | 6.5 nM |
| NC(=O)c1cccc2c(N[C@H]3CNC[C@@H]3c3cccc(OC(F)(F)F)c3)ncnc12 (racemic) [compound 56] | 2.4 nM |
| NC(=O)c1cccc2c(N[C@H]3CNC[C@@H]3c3ccc(OC(F)(F)F)cc3)ncnc12 (racemic) [compound 59] | 1.7 nM |
| NC(=O)c1cccc2c(N[C@H]3CNC[C@@H]3c3ccc4ncccc4c3)ncnc12 (racemic) [compound 69] | 3.2 nM |
| NC(=O)c1cccc2c(N[C@H]3CNC[C@@H]3c3ccc4c(c3)CCO4)ncnc12 (racemic) [compound 89] | 3.2 nM |
| Cc1nc(N[C@H]2CNC[C@@H]2c2ccccc2Cl)c2cccc(C(N)=O)c2n1 (racemic) [compound 98] | 2.7 nM |
| NC(=O)c1cccc2c(N[C@H]3CNC[C@@H]3c3ccc(Cl)c(F)c3)ncnc12 (racemic) [compound 99] | 0.088 nM |
| NC(=O)c1cccc2c(N[C@H]3CNC[C@@H]3c3ccc(F)c(Cl)c3)ncnc12 (racemic) [compound 100] | 1.4 nM |
| COc1ccc([C@H]2CNC[C@@H]2Nc2ncnc3c(C(N)=O)cccc23)cc1F (racemic) [compound 102] | 2.9 nM |
| Cc1nc(N[C@H]2CNC[C@@H]2c2ccc(Cl)c(F)c2)c2cccc(C(N)=O)c2n1 (racemic) [compound 103] | 1.8 nM |
| NC(=O)c1cccc2c(N[C@H]3CNC[C@@H]3c3cc(F)c(F)cc3F)ncnc12 (racemic) [compound 105, 4-(((3R,4S)-4-(2,4,5-trifluorophenyl)pyrrolidin-3-yl)amino)quinazoline-8-carboxamide] | 420 nM |
| NC(=O)c1cccc2c(N[C@@H]3CNC[C@H]3c3cccc(Cl)c3F)ncnc12 (racemic) [compound 109] | 2.1 nM |
| NC(=O)c1cccc2c(N[C@H]3CNC[C@@H]3c3cc(F)cc(Cl)c3)ncnc12 (racemic) [compound 114] | 1.5 nM |
| NC(=O)c1cccc2c(N[C@H]3CNC[C@@H]3c3cccc(F)c3F)ncnc12 (racemic) [compound 116] | 4.1 nM |
| NC(=O)c1cccc2c(N[C@H]3CNC[C@@H]3c3cccc(N4CCCC4)c3)ncnc12 (racemic) [compound 117, 4-(((3R,4S)-4-(3-(pyrrolidin-1-yl)phenyl)pyrrolidin-3-yl)amino)quinazoline-8-carboxamide] | 5.9 nM |
| NC(=O)c1cccc2c(N[C@@H]3CNCC[C@H]3c3cc(F)cc(F)c3)ncnc12 (racemic) [compound 123] | 2.3 nM |
| NC(=O)c1cccc2c(N[C@@H]3CNCC[C@H]3c3ccc(C(F)(F)F)cc3)ncnc12 (racemic) [compound 127] | 2 nM |

The next lines start with the values.

| IC50 | Compound |
| --- | --- |
| 4.9 nM | NC(=O)c1cccc2c(N[C@H]3CNC[C@@H]3c3ccccc3)ncnc12 (racemic) [compound 3, 4-((4-phenylpyrrolidin-3-yl)amino)quinazoline-8-carboxamide] |
| 1.3 nM | NC(=O)c1cccc2c(NC3CNCC3c3cccc(Cl)c3)ncnc12 (racemic) [compound 9, 4-((4-(3-chlorophenyl)pyrrolidin-3-yl)amino)quinazoline-8-carboxamide] |
| 23 nM | CN1CC(Nc2ncnc3c(C(N)=O)cccc23)C(c2cccc(F)c2)C1 (racemic) [compound 12, 4-((4-(3-fluorophenyl)-1-methylpyrrolidin-3-yl)amino)quinazoline-8-carboxamide] |
| 6.3 nM | NC(=O)c1cccc2c(N[C@@H]3CNCC[C@H]3c3ccccc3)ncnc12 (racemic) [compound 27, 4-((4-phenylpiperidin-3-yl)amino)quinazoline-8-carboxamide] |
| 1.8 nM | NC(=O)c1cccc2c(N[C@@H]3CNCC[C@H]3c3cccc(F)c3)ncnc12 (racemic) [compound 28, 4-((4-(3-fluorophenyl)piperidin-3-yl)amino)quinazoline-8-carboxamide] |
| 2.1 nM | NC(=O)c1cccc2c(N[C@@H]3CNCC[C@H]3c3cccc(C(F)(F)F)c3)ncnc12 (racemic) [compound 30, 4-((4-(3-(trifluoromethyl)phenyl)piperidin-3-yl)amino)quinazoline-8-carboxamide] |
| 3.1 nM | Cc1cccc([C@@H]2CCNC[C@H]2Nc2ncnc3c(C(N)=O)cccc23)c1 (racemic) [compound 31, 4-((4-(m-tolyl)piperidin-3-yl)amino)quinazoline-8-carboxamide] |
| 3.2 nM | NC(=O)c1cccc2c(N[C@@H]3CNCC[C@H]3c3ccc(F)cc3)ncnc12 (racemic) [compound 32, 4-((4-(4-fluorophenyl)piperidin-3-yl)amino)quinazoline-8-carboxamide] |
| 1.7 nM | CCc1nc(N[C@@H]2CNCC[C@H]2c2cccc(F)c2)c2cccc(C(N)=O)c2n1 (racemic) [compound 38, 2-ethyl-4-((4-(3-fluorophenyl)piperidin-3-yl)amino)quinazoline-8-carboxamide] |
| 4.8 nM | CCc1nc(N[C@@H]2CNCC[C@H]2c2ccccc2)c2cccc(C(N)=O)c2n1 (racemic) [compound 39, 2-ethyl-4-((4-phenylpiperidin-3-yl)amino)quinazoline-8-carboxamide] |
| 1.9 nM | NC(=O)c1cccc2c(N[C@H]3CNC[C@@H]3c3cc(F)cc(C(F)(F)F)c3)ncnc12 (racemic) [compound 45] |
| 9 nM | NC(=O)c1cccc2c(N[C@@H]3CNC[C@@H]3c3cccc(OC(F)(F)F)c3)ncnc12 (racemic) [compound 55] |
| 8.8 nM | Cc1cc([C@H]2CNC[C@@H]2Nc2ncnc3c(C(N)=O)cccc23)ccc1F (racemic) [compound 74] |
| 1.8 nM | NC(=O)c1cccc2c(N[C@H]3CNC[C@@H]3c3cccc(Br)c3)ncnc12 (racemic) [compound 85] |
| 14 nM | N#Cc1cccc([C@@H]2CNC[C@@H]2Nc2ncnc3c(C(N)=O)cccc23)c1 (racemic) [compound 86] |
| 2 nM | Cc1c(F)cccc1[C@H]1CNC[C@@H]1Nc1ncnc2c(C(N)=O)cccc12 (racemic) [compound 92] |
| 5.5 nM | CCc1nc(N[C@@H]2CNC[C@H]2c2cccc(F)c2)c2cccc(C(N)=O)c2n1 (racemic) [compound 107] |
| 1.54 nM | NC(=O)c1cccc2c(N[C@H]3CNC[C@@H]3c3ccc4ccccc4c3)ncnc12 (racemic) [compound 110] |
| 7.5 nM | CS(=O)(=O)c1ccc([C@H]2CNC[C@@H]2Nc2ncnc3c(C(N)=O)cccc23)cc1 (racemic) [compound 111] |
| 15 nM | NC(=O)c1cccc2c(N[C@H]3CNC[C@@H]3c3ccc(F)c(-c4cccnc4)c3)ncnc12 (racemic) [compound 119] |
| 1.4 nM | NC(=O)c1cccc2c(N[C@H]3CNC[C@@H]3c3ccc(-c4ccccc4)c(F)c3)ncnc12 (racemic) [compound 120] |
| 6 nM | NC(=O)c1cccc2c(N[C@H]3CNC[C@@H]3c3ccc(-c4cccnc4)c(F)c3)ncnc12 (racemic) [compound 121] |
| 22 nM | CN1CC[C@@H](c2ccccc2)[C@H](Nc2ncnc3c(C(N)=O)cccc23)C1 (racemic) [compound 124] |
| 3.9 nM | CCc1nc(N[C@@H]2CNCC[C@H]2c2cccc(C(F)(F)F)c2)c2cccc(C(N)=O)c2n1 (racemic) [compound 125] |
| 4.5 nM | COc1cccc([C@@H]2CCNC[C@H]2Nc2nc(C)nc3c(C(N)=O)cccc23)c1 (racemic) [compound 126] |
| 5.4 nM | Cc1nc(N[C@@H]2CNCC[C@H]2c2ccc(F)cc2)c2cccc(C(N)=O)c2n1 (racemic) [compound 132] |
